Patent US20130203798A1, “DIAGNOSIS AND TREATMENT OF FUNCTIONAL DYSPEPSIA AND IRRITABLE BOWEL SYNDROME” (EV MED, priority 2012, published 2013)

Assays:
coxsackievirus B3 (CVB3) = assay: Inhibition of enterovirus replication in chronically infected BGMK-DAF cells, viral RNA by qRT-PCR; format: cell-based; details: for Viral RNA Log10: no treatment 6.84
Procedure: (§1) Oxymatrine is an alkaloid with antiviral and immune boosting effect. […] 200,000 BGMK-DAF cells were infected with coxsackievirus B3,4 (CVB3,4) or echovirus 6,7 (Echo V6,7), previously titrated to cause complete lysis of cells in 48-72 hours, then treated with 0.18 μg of peg-interferon α-2a in 4 hours and 90 hours. Oxymatrine was added at 162 hours post-infection. Viral RNA, expressed in log10 was quantified by qRT-PCR with a cDNA standard, and reduction of log viral RNA calculated based on no-treatment wells. Duplicate wells were combined for viral RNA determination.

coxsackievirus B4 (CVB4) = assay: as above; format: cell-based; details: for Viral RNA Log10: no treatment 4.20
Procedure: as §1

echovirus 6 (EchoV 6) = assay: as above; format: cell-based; details: EchoV 6, BGMK-DAF cells; for Viral RNA Log10: no treatment 5.00
Procedure: as §1

echovirus 7 (EchoV 7) = assay: as above; format: cell-based; details: EchoV 7, BGMK-DAF cells; for Viral RNA Log10: no treatment 5.61
Procedure: as §1

enteroviruses = assay: In vitro inhibition of four enteroviruses in interferon pre-treated, chronically infected cells (summary); format: cell-based, enterovirus; details: cells pre-treated with interferon to produce chronic infection; four enteroviruses tested
Procedure: as §1

SMILES: O=C1CCC[C@@H]2[C@H]3CCC[N@+]4([O-])CCC[C@@H](CN12)[C@@H]34 [Oxymatrine, oxymatrine]
- Dec Log10 (reduction of log viral RNA vs no-treatment wells) (coxsackievirus B3 (CVB3); 1 μM oxymatrine): −6.24 Log10
- Viral RNA Log10 (coxsackievirus B3 (CVB3); 1 μM oxymatrine): 0.60 Log10
- Dec Log10 (reduction of log viral RNA vs no-treatment wells) (coxsackievirus B3 (CVB3); 10 μM oxymatrine): −6.54 Log10
- Viral RNA Log10 (coxsackievirus B3 (CVB3); 10 μM oxymatrine): 0.30 Log10
- Dec Log10 (reduction of log viral RNA vs no-treatment wells) (coxsackievirus B3 (CVB3); 100 μM oxymatrine): −5.54 Log10
- Viral RNA Log10 (coxsackievirus B3 (CVB3); 100 μM oxymatrine added 162 h post-infection): 1.30 Log10
- Dec Log10 (reduction of log viral RNA vs no-treatment wells) (coxsackievirus B4 (CVB4); 1 μM oxymatrine): −0.55 Log10
- Viral RNA Log10 (coxsackievirus B4 (CVB4); 1 μM oxymatrine): 3.66 Log10
- Dec Log10 (reduction of log viral RNA vs no-treatment wells) (coxsackievirus B4 (CVB4); 10 μM oxymatrine): −4.20 Log10
- Viral RNA Log10 (coxsackievirus B4 (CVB4); 10 μM oxymatrine): 0.00 Log10
- Dec Log10 (reduction of log viral RNA vs no-treatment wells) (coxsackievirus B4 (CVB4); 100 μM oxymatrine): −3.90 Log10
- Viral RNA Log10 (coxsackievirus B4 (CVB4); 100 μM oxymatrine): 0.30 Log10
- Dec Log10 (reduction of log viral RNA vs no-treatment wells) (echovirus 6 (EchoV 6); 1 μM oxymatrine): 0.00 Log10
- Viral RNA Log10 (echovirus 6 (EchoV 6); 1 μM oxymatrine): 5.00 Log10
- Dec Log10 (reduction of log viral RNA vs no-treatment wells) (echovirus 6 (EchoV 6); 10 μM oxymatrine): 0.37 Log10
- Viral RNA Log10 (echovirus 6 (EchoV 6); 10 μM oxymatrine): 5.37 Log10
- Dec Log10 (reduction of log viral RNA vs no-treatment wells) (echovirus 6 (EchoV 6); 100 μM oxymatrine): 0.00 Log10
- Viral RNA Log10 (echovirus 6 (EchoV 6); 100 μM oxymatrine): 5.00 Log10
- Dec Log10 (reduction of log viral RNA vs no-treatment wells) (echovirus 7 (EchoV 7); 1 μM oxymatrine): −0.28 Log10
- Viral RNA Log10 (echovirus 7 (EchoV 7); 1 μM oxymatrine): 5.33 Log10
- Dec Log10 (reduction of log viral RNA vs no-treatment wells) (echovirus 7 (EchoV 7); 10 μM oxymatrine): −0.17 Log10
- Viral RNA Log10 (echovirus 7 (EchoV 7); 10 μM oxymatrine): 5.45 Log10
- Dec Log10 (reduction of log viral RNA vs no-treatment wells) (echovirus 7 (EchoV 7); 100 μM oxymatrine): 0.22 Log10
- Viral RNA Log10 (echovirus 7 (EchoV 7); 100 μM oxymatrine): 5.83 Log10
- Inhibition of enteroviruses in vitro (enteroviruses): significant inhibition of two out of four enteroviruses
